The source of these data is patent publication US9247759B2, “Identification of human T2R receptors that respond to bitter compounds that elicit the bitter taste in compositions, and the use thereof in assays to identify compounds that inhibit (block) bitter taste in compositions and use thereof” (SENOMYX, INC., priority 2007, dated 2016).

As usually defined, the IC50 is the concentration that gives 50% inhibition.

In the assay the target is hT2R8 (Homo sapiens (Human), UniProt Q9NYW2). Description: hT2R8 antagonist high-throughput FLIPR assay, stable cell line with G16g44, agonist andrographolide. Format: cell-based. Summed up:
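Antagonist screen: compounds co-applied with agonist andrographolide at 200 μM, a dose giving 70–80% of maximal hT2R8 activation. Fluorescence measured by FLIPR in a stable HEK293 line expressing both hT2R8 and the promiscuous G16g44 protein.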

Where [1] appears, read: read-out: IC50 on hT2R8 bitter receptor.
[2] abbreviates: table after Example 12-37, read-out: hT2R8 IC50.
The mark [3] stands for this setting: table after Example 10-97, read-out: hT2R8 IC50.

Like-named read-outs stand apart in the source and are kept apart here.

Sequence of hT2R8 (Q9NYW2 whole entry): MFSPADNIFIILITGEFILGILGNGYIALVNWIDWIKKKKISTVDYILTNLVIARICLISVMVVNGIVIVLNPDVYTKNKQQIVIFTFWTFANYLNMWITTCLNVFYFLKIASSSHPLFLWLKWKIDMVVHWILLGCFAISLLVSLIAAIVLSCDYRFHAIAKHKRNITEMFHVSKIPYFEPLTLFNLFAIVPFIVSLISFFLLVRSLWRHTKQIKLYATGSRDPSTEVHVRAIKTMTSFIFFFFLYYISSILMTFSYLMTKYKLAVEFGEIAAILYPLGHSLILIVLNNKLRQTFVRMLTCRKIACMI

As to `COc1cccc(C(=O)Nc2cn(Cc3c(C)noc3C)nc2C)c1` [Example 4-115, N-(1-((3,5-dimethylisoxazol-4-yl)methyl)-3-methyl-1H-pyrazol-4-yl)-3-methoxybenzamide], under “Table A, read-out: hT2R8 IC50”, the IC50 came out at 9.25 µM. Regarding `Cc1noc(C)c1Cn1cc(N2C(=O)[C@@H](C)N(Cc3cccc(O)c3)C2=O)cn1` [Example 12-7, (R)-3-(1-((3,5-dimethylisoxazol-4-yl)methyl)-1H-pyrazol-4-yl)-1-(3-hydroxybenzyl)-5-methylimidazolidine-2,4-dione], the IC50 under setting [1] is 0.02 µM. Turning to `COc1ccc(OC)c(CN2C(=O)N(c3cnn(Cc4c(C)noc4C)c3)C(=O)C2(C)C)c1` [Example 12-54, 1-(2,5-dimethoxybenzyl)-3-(1-((3,5-dimethylisoxazol-4-yl)methyl)-1H-pyrazol-4-yl)-5,5-dimethylimidazolidine-2,4-dione], the IC50 under setting [2] was found to be 0.2 µM.

Regarding `Cc1noc(C)c1Cn1cc(N2C(=O)N(CCc3ccccc3)C(C)(C)C2=O)cn1` [Example 12-56, 3-(1-((3,5-dimethylisoxazol-4-yl)methyl)-1H-pyrazol-4-yl)-5,5-dimethyl-1-phenethylimidazolidine-2,4-dione], the IC50 under setting [2] came to 0.23 µM. As for `Cc1noc(C)c1Cn1cc(N2C(=O)CN(Cc3ccccc3)C2=O)cn1` [Example 10-53, 1-benzyl-3-(1-((3,5-dimethylisoxazol-4-yl)methyl)-1H-pyrazol-4-yl)imidazolidine-2,4-dione], the IC50 reads like this: under setting [1], 0.09 µM; under setting [3], 0.257 µM. As for `Cc1cccc(C(=O)Nc2cnn(Cc3c(C)noc3C)c2)n1` [Example 4-48, N-(1-((3,5-dimethylisoxazol-4-yl)methyl)-1H-pyrazol-4-yl)-6-methylpicolinamide], where the note is “Table A, read-out: hT2R8 IC50”, the IC50 amounted to 1.95 µM. For the molecule `Cc1noc(C)c1Cn1cc(N2C(=O)NC(COCc3ccccc3)C2=O)cn1` (centres unmarked) [Example 10-47, 5-(benzyloxymethyl)-3-(1-((3,5-dimethylisoxazol-4-yl)methyl)-1H-pyrazol-4-yl)imidazolidine-2,4-dione], the IC50 by setting is: under setting [1], 0.76 µM; under setting [3], 0.766 µM. Regarding `Cc1noc(C)c1Cn1cc(N2C(=O)[C@@H](C)N(Cc3ccccc3)C2=O)cn1` [Example 12-37, (R)-1-benzyl-3-(1-((3,5-dimethylisoxazol-4-yl)methyl)-1H-pyrazol-4-yl)-5-methylimidazolidine-2,4-dione], the IC50 under setting [1] was found to be 0.01 µM.

With `Cc1ccc(CN2C(=O)N(c3cnn(Cc4c(C)noc4C)c3)C(=O)C2(C)C)cc1C` [Example 12-83, 1-(3,4-dimethylbenzyl)-3-(1-((3,5-dimethylisoxazol-4-yl)methyl)-1H-pyrazol-4-yl)-5,5-dimethylimidazolidine-2,4-dione], the IC50 under setting [2] stood at 1.22 µM. For `CCc1nc2cc(C(=O)Nc3cnn(Cc4c(C)noc4C)c3)ccc2o1` [Example 4-81, N-(1-((3,5-dimethylisoxazol-4-yl)methyl)-1H-pyrazol-4-yl)-2-ethylbenzo[d]oxazole-5-carboxamide], the IC50 (Table A, read-out: hT2R8 IC50) is 0.8 µM.

Take `COc1ccc(CN2C(=O)N(c3cnn(Cc4c(C)noc4C)c3)C(=O)C2(C)C)cc1OC` [Example 12-30, 1-(3,4-dimethoxybenzyl)-3-(1-((3,5-dimethylisoxazol-4-yl)methyl)-1H-pyrazol-4-yl)-5,5-dimethylimidazolidine-2,4-dione]: under setting [1], the IC50 worked out at 0.08 µM.

Consider `CNC(=O)c1cccc(CN2CC(=O)N(c3cnn(Cc4c(C)noc4C)c3)C2=O)c1` [Example 10-9, 3-((3-(1-((3,5-dimethylisoxazol-4-yl)methyl)-1H-pyrazol-4-yl)-2,4-dioxoimidazolidin-1-yl)methyl)-N-methylbenzamide], for which the IC50 reads like this: under setting [1], 0.14 µM; under setting [3], 0.141 µM.

With `Cc1noc(C)c1Cn1cc(N2C(=O)CN(Cc3ccccc3C(F)(F)F)C2=O)cn1` [Example 10-22, 3-(1-((3,5-dimethylisoxazol-4-yl)methyl)-1H-pyrazol-4-yl)-1-(2-(trifluoromethyl)benzyl)imidazolidine-2,4-dione], the IC50 is, setting by setting: under setting [3], 0.221 µM; (unit uM, read-out: IC50 on hT2R08 bitter receptor) 0.2 µM.
